ChEMBL document CHEMBL4251579, “Design, synthesis, and biological evaluation of a series of resorcinol-based N-benzyl benzamide derivatives as potent Hsp90 inhibitors” (Eur J Med Chem, 2018)
The source made the active and inactive calls. No cut-off for these calls is given here.

What was measured:
SK-BR-3 = experiment: Antiproliferative activity against human SKBR3 cells after 72 hrs by Cell Titer 96 Aqueous One Solution cell proliferation assay; type: functional
NCI-H1975 [1] = experiment: Antiproliferative activity against human NCI-H1975 cells after 72 hrs by Cell Titer 96 Aqueous One Solution cell proliferation assay; type: functional; conditions: NCI-H1975, 72 h
[2] = target: T1, Heat shock protein HSP 90-alpha (Homo sapiens, UniProt P07900); experiment: Inhibition of FITC-geldanamycin binding to N-terminal domain of recombinant full-length HSP90alpha (unknown origin) after 16 hrs by fluorescence polarization assay
NCI-H1975 [3] = experiment: Induction of apoptosis in human NCI-H1975 cells assessed as increase in cleaved caspase-3 expression at 0.05 to 1 uM after 24 hrs by Western blot analysis; type: functional, cell-based
NCI-H1975 [4] = experiment: Induction of apoptosis in human NCI-H1975 cells assessed as increase in cleaved caspase-8 expression at 0.05 to 1 uM after 24 hrs by Western blot analysis; type: functional, cell-based
Mus musculus [5] = experiment: Toxicity in NOD-scid IL2Rgamma null mouse xenografted with human NCI-H1975 cells assessed as change in body weight at 25 to 50 mg/kg, ip dosed daily for 5 days per week followed by 2 days rest for 3 weeks and measured after 21 days post dose; type: organism-based; conditions: in vivo, 504 h
Cytochrome P450 2C19 = Cytochrome P450 2C19 (Homo sapiens, UniProt P33261); experiment: Inhibition of CYP2C19 in human pooled human liver microsomes using omeprazole as substrate assessed as omepraozle hydroxylation preincubated for 5 mins followed by NADPH addition measured after 15 mins by LC-MS/MS analysis; type: ADME
Cytochrome P450 2C9 = Cytochrome P450 2C9 (Homo sapiens, UniProt P11712); experiment: Inhibition of CYP2C9 in human pooled human liver microsomes using tolbutamide as substrate assessed as tolbutamide 4-methylhydroxylation preincubated for 5 mins followed by NADPH addition measured after 15 mins by LC-MS/MS analysis; type: ADME
[6] = target: T2, Heat shock protein HSP90 (Homo sapiens) (UniProt P07900+P08238); experiment: Inhibition of HSP90 in human NCI-H1975 cells assessed as decrease in EGFR protein expression at 0.05 to 1 uM after 24 hrs by Western blot analysis; type: cell-based
[7] = target: T2, Heat shock protein HSP90 (Homo sapiens); experiment: Inhibition of HSP90 in human NCI-H1975 cells assessed as induction of HSP90 expression at 0.05 to 1 uM after 24 hrs by Western blot analysis; type: cell-based
NCI-H1975 [8] = experiment: Induction of apoptosis in human NCI-H1975 cells assessed as increase in Bax expression levels at 0.05 to 1 uM after 24 by Western blot analysis; type: functional, cell-based
Mus musculus [9] = experiment: (§1) In vivo inhibition of HSP90 in NOD-scid IL2Rgamma null mouse tumor xenografted with human NCI-H1975 cells assessed as decrease in Akt protein expression at 25 to 50 mg/kg, ip dosed daily for 5 days per week followed by 2 days rest for 3 weeks and measured after 21 days post dose by immunoblot analysis; type: functional, organism-based
Mus musculus [10] = experiment: as §1, with “haematoxylin and eosin staining-based immunohistochemical” for “immunoblot”; type: functional, organism-based
[11] = target: T2, Heat shock protein HSP90 (Homo sapiens); experiment: Inhibition of HSP90 in human NCI-H1975 cells assessed as decrease in Met protein expression at 0.05 to 1 uM after 24 hrs by Western blot analysis; type: cell-based
Mus musculus [12] = experiment: Toxicity in NOD-scid IL2Rgamma null mouse xenografted with human NCI-H1975 cells assessed as induction of abnormal behaviours at 25 to 50 mg/kg, ip measured after 21 days; type: organism-based; conditions: in vivo, 504 h
NCI-H1975 [13] = experiment: Antitumor activity against human NCI-H1975 cells xenografted in NOD-scid IL2Rgamma null mouse assessed as delay in tumor growth at 25 to 50 mg/kg, ip dosed daily for 5 days per week followed by 2 days rest for 3 weeks and measured up to 21 days post dose; type: functional, organism-based
[14] = target: T2, Heat shock protein HSP90 (Homo sapiens); experiment: Inhibition of HSP90 in human NCI-H1975 cells assessed as decrease in Akt protein expression at 0.05 to 1 uM after 24 hrs by Western blot analysis; type: cell-based
CYP3A = CYP3A (Homo sapiens, UniProt P08684+P20815+P24462+Q9HB55); experiment: Inhibition of CYP3A in human pooled human liver microsomes using midazolam as substrate assessed as midazolam 1'-hydroxylation preincubated for 5 mins followed by NADPH addition measured after 15 mins by LC-MS/MS analysis; type: ADME; conditions: probe midazolam
NCI-H1975 [15] = experiment: Effect on beta-actin protein levels in human NCI-H1975 cells at 0.05 to 1 uM after 24 hrs by Western blot analysis; type: ADME, cell-based; conditions: nci-h1975, 24 h
NCI-H1975 [16] = experiment: Induction of apoptosis in human NCI-H1975 cells assessed as increase in cleaved PARP expression at 0.05 to 1 uM after 24 hrs by Western blot analysis; type: functional, cell-based
[17] = target: T2, Heat shock protein HSP90 (Homo sapiens); experiment: Inhibition of HSP90 in human NCI-H1975 cells assessed as decrease in c-Raf protein expression at 0.05 to 1 uM after 24 hrs by Western blot analysis; type: cell-based
Cytochrome P450 1A2 = target: T3, Cytochrome P450 1A2 (Homo sapiens, UniProt P05177); experiment: Inhibition of CYP1A2 in human pooled human liver microsomes using phenacetin as substrate assessed as […] preincubated for 5 mins followed by NADPH addition measured after 15 mins by LC-MS/MS analysis; type: ADME
T3 sequence (P05177 whole entry): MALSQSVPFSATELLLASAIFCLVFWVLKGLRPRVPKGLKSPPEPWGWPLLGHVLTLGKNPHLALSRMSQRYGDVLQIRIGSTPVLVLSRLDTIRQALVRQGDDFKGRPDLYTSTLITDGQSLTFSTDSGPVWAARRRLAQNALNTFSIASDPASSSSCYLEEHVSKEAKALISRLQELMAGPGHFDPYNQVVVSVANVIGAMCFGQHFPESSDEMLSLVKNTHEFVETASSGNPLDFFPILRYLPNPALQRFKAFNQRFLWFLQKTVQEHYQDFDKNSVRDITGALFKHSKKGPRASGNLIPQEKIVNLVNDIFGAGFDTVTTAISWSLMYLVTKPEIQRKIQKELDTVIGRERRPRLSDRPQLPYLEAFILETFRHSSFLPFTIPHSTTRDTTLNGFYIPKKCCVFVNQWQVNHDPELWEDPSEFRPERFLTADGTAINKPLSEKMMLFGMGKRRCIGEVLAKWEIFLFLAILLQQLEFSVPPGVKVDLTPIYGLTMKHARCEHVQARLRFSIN

Mus musculus [18] = experiment: as §1, with “Met” for “Akt”; type: functional, organism-based
[19] = target: T2, Heat shock protein HSP90 (Homo sapiens); experiment: Inhibition of HSP90 in human NCI-H1975 cells assessed as induction of HSP70 expression at 0.05 to 1 uM after 24 hrs by Western blot analysis; type: cell-based
NCI-H1975 [20] = experiment: Induction of apoptosis in human NCI-H1975 cells assessed as increase in Bcl2 expression levels at 0.05 to 1 uM after 24 by Western blot analysis; type: functional, cell-based
Cytochrome P450 2D6 = Cytochrome P450 2D6 (Homo sapiens, UniProt P10635); experiment: Inhibition of CYP2D6 in human pooled human liver microsomes using dextromethorphan as substrate assessed as dextromethorphan O-demethylation preincubated for 5 mins followed by NADPH addition measured after 15 mins by LC-MS/MS analysis; type: ADME
Mus musculus [21] = experiment: as §1, with “Met” for “Akt”, “haematoxylin and eosin staining-based immunohistochemical” for “immunoblot”; type: functional, organism-based
Mus musculus [22] = experiment: as §1, with “EGFR” for “Akt”; type: functional, organism-based
Mus musculus [23] = experiment: as §1, with “EGFR” for “Akt”, “haematoxylin and eosin staining-based immunohistochemical” for “immunoblot”; type: functional, organism-based
[24] = target: T2, Heat shock protein HSP90 (Homo sapiens); experiment: Inhibition of HSP90 in human NCI-H1975 cells assessed as decrease in Her2 protein expression at 0.05 to 1 uM after 24 hrs by Western blot analysis; type: cell-based
[25] = target: T1, Heat shock protein HSP 90-alpha; experiment: Binding affinity to N-terminal domain of recombinant full-length HSP90alpha (unknown origin) by surface plasmon resonance assay

Cytochrome P450 2C9, sequence (P11712 whole entry): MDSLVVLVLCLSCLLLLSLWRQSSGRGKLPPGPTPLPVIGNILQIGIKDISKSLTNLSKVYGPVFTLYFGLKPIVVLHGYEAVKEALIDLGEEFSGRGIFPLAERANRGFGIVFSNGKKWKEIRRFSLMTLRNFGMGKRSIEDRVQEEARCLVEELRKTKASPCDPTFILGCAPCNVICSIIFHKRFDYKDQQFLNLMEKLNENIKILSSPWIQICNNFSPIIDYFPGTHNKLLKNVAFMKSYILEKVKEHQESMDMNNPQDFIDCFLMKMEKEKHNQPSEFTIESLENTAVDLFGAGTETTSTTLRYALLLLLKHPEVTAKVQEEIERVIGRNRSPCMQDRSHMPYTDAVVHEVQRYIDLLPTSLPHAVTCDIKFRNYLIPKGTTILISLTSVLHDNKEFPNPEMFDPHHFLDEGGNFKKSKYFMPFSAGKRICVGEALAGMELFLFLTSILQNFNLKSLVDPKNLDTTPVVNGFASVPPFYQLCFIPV
Cytochrome P450 2D6, sequence (P10635 whole entry): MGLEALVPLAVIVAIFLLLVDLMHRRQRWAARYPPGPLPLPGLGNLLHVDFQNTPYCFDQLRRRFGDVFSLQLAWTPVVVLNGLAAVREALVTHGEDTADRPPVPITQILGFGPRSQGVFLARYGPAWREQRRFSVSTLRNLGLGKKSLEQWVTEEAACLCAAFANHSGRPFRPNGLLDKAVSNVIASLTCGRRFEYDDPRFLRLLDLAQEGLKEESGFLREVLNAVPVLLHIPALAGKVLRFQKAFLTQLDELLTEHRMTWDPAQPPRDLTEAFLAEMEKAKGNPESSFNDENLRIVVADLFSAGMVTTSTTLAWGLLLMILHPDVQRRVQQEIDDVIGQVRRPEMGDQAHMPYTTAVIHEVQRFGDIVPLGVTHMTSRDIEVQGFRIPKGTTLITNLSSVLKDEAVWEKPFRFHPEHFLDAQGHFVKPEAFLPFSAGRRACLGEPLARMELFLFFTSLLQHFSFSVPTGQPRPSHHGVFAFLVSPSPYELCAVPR
Cytochrome P450 2C19, sequence (P33261 whole entry): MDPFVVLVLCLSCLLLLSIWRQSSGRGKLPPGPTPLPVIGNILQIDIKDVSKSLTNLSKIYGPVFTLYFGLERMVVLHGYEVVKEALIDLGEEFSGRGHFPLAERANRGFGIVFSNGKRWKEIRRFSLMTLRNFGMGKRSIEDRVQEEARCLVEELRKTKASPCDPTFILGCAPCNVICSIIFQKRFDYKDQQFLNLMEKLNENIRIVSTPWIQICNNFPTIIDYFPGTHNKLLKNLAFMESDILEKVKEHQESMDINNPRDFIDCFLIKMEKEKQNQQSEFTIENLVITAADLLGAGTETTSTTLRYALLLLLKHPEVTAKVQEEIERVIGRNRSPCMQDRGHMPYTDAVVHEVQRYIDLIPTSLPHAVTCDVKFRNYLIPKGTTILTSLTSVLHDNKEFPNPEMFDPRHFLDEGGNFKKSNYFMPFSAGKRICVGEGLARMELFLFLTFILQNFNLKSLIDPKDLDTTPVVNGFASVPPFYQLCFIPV

## COc1cc(CN(C)C(=O)c2cc(Cl)c(O)cc2O)c(Cl)c(OC)c1OC
SK-BR-3; SK-BR-3, 72 h
  GI50: 2.4 µM
NCI-H1975 [1]
  GI50: 33.8 µM

## CCCNC(=O)c1ccc(CN(C)C(=O)c2cc(Cl)c(O)cc2O)cc1
NCI-H1975 [1]
  GI50: 20.8 µM

## COc1cc(CN(C)C(=O)c2cc(Cl)c(O)cc2O)cc(OC)c1OC
SK-BR-3; SK-BR-3, 72 h
  GI50: 30.1 µM
[2]
  IC50: > 1 µM
NCI-H1975 [1]
  GI50: 73.1 µM

## CCNC(=O)c1ccc(CN(C)C(=O)c2cc(Cl)c(O)cc2O)cc1
NCI-H1975 [1]
  GI50: 21.7 µM

## CCNC(=O)c1ccc(CN(C)C(=O)c2cc(C(C)C)c(O)cc2O)cc1
NCI-H1975 [1]
  GI50: 0.46 µM

## CCCNC(=O)c1ccc(CN(C)C(=O)c2cc(C(C)C)c(O)cc2O)cc1
NCI-H1975 [3]
  Activity: Active
NCI-H1975 [4]
  Activity: Active
Mus musculus [5]
  Activity: Non-Toxic
Cytochrome P450 2C19
  IC50: 14.6 µM
Cytochrome P450 2C9
  IC50: 5.3 µM
[6]
  inhibition: Active
[7]
  inhibition: Active
NCI-H1975 [8]
  Activity: inactive
Mus musculus [9]
  inhibition: Active
Mus musculus [10]
  inhibition: Active
[2]
  IC50: 0.0053 µM
[11]
  inhibition: Active
Mus musculus [12]
  Activity: Non-Toxic
NCI-H1975 [13]
  Activity: Active
[14]
  inhibition: Active
CYP3A
  IC50 at 15 min: 25.9 µM
NCI-H1975 [15]
  Activity: Non-Toxic
NCI-H1975 [16]
  Activity: Active
[17]
  inhibition: Active
Cytochrome P450 1A2
  IC50: 34.1 µM
Mus musculus [18]
  inhibition: Active
[19]
  inhibition: Active
NCI-H1975 [20]
  Activity: inactive
Cytochrome P450 2D6
  IC50: 23 µM
Mus musculus [21]
  inhibition: Active
Mus musculus [22]
  inhibition: Active
Mus musculus [23]
  inhibition: Active
[24]
  inhibition: Active
[25]
  Kd: 0.00308 µM
NCI-H1975 [1]
  GI50: 0.42 µM

## Cc1cccc(CN(C)C(=O)c2cc(Cl)c(O)cc2O)c1
SK-BR-3; SK-BR-3, 72 h
  GI50: 11.3 µM
NCI-H1975 [1]
  GI50: 49.3 µM

## CN(Cc1ccc2c(c1)OCO2)C(=O)c1cc(Cl)c(O)cc1O
SK-BR-3; SK-BR-3, 72 h
  GI50: 41.8 µM
NCI-H1975 [1]
  GI50: 103 µM

## COC1=C2C[C@@H](C)C[C@H](OC)[C@H](O)[C@@H](C)/C=C(\C)[C@H](OC(N)=O)[C@@H](OC)/C=C\C=C(/C)C(=O)NC(=CC1=O)C2=O [GELDANAMYCIN]
SK-BR-3
  GI50: inactive
NCI-H1975 [1]
  GI50: 0.56 µM

## Cc1ccccc1CN(C)C(=O)c1cc(Cl)c(O)cc1O
SK-BR-3; SK-BR-3, 72 h
  GI50: 4.2 µM
NCI-H1975 [1]
  GI50: 47.5 µM

## COc1cc(CN(C)C(=O)c2cc(Cl)c(O)cc2O)c(Br)c(OC)c1OC
SK-BR-3; SK-BR-3, 72 h
  GI50: 7.7 µM
NCI-H1975 [1]
  GI50: 34.3 µM

## O=C(NCc1ccccc1)c1cc(Cl)c(O)cc1O
SK-BR-3
  GI50: inactive
NCI-H1975 [1]
  GI50: 86.2 µM

## CNC(=O)c1ccc(CN(C)C(=O)c2cc(Cl)c(O)cc2O)cc1
[2]
  IC50: 0.496 µM
NCI-H1975 [1]
  GI50: 34.8 µM

## Cc1ccc(CN(C)C(=O)c2cc(Cl)c(O)cc2O)cc1
SK-BR-3; SK-BR-3, 72 h
  GI50: 7.2 µM
NCI-H1975 [1]
  GI50: 34.3 µM

## CNC(=O)c1ccc(CN(C)C(=O)c2cc(C(C)C)c(O)cc2O)cc1
[2]
  IC50: 0.0114 µM
NCI-H1975 [1]
  GI50: 0.86 µM

## COc1ccc(CN(C)C(=O)c2cc(Cl)c(O)cc2O)cc1OC
SK-BR-3; SK-BR-3, 72 h
  GI50: 7.7 µM
NCI-H1975 [1]
  GI50: 33.4 µM

## COc1ccc(CN(C)C(=O)c2cc(Cl)c(O)cc2O)cc1
SK-BR-3; SK-BR-3, 72 h
  GI50: 7.2 µM
NCI-H1975 [1]
  GI50: 16.7 µM

## CN(Cc1ccccc1)C(=O)c1cc(Cl)c(O)cc1O
SK-BR-3; SK-BR-3, 72 h
  GI50: 18.3 µM
NCI-H1975 [1]
  GI50: 35.5 µM
